Measurements as given in patent US20090304692A1, “TRIAZINE COMPOUNDS AS PI3 KINASE AND MTOR INHIBITORS” (Wyeth, priority 2008, published 2009).
pIC50: −log10 of the molar value. Read-outs that look alike come from different tables or passages of the source.

How the values were obtained:
Human mTOR (FLAG-TOR) = Human mTOR (FLAG-TOR) (Homo sapiens, UniProt P42345); assay: mTOR kinase assay (DELFIA format, purified enzyme); type: biochemical; settings: read-out: IC50 mTOR
[1] = tested on: human breast MDA-MB-361 tumor cell line; assay: In vitro cell culture growth assay (MTS), MDA-MB-361; type: cell-based; settings: Homo sapiens, MTS cell growth assay, three days after drug treatment, MDA-MB-361 cells, read-out: IC50 MDA-MB-361
[2] = tested on: human prostate PC3-mm2 tumor cell line; assay: In vitro cell culture growth assay (MTS), PC3-mm2; type: cell-based; settings: Homo sapiens, PC3MM2, 72 h, MTS cell growth assay, three days after drug treatment, PC3-mm2 cells; read-out: IC50 PC3-mm2
PI3K-α = PI3K-α (Homo sapiens, UniProt P42336); assay: PI3K-alpha fluorescence polarization assay
PI3K-γ = PI3K-γ (Homo sapiens, UniProt P48736); assay: PI3K-gamma fluorescence polarization assay
Chain of PI3K-γ (P48736 whole entry, species assumed): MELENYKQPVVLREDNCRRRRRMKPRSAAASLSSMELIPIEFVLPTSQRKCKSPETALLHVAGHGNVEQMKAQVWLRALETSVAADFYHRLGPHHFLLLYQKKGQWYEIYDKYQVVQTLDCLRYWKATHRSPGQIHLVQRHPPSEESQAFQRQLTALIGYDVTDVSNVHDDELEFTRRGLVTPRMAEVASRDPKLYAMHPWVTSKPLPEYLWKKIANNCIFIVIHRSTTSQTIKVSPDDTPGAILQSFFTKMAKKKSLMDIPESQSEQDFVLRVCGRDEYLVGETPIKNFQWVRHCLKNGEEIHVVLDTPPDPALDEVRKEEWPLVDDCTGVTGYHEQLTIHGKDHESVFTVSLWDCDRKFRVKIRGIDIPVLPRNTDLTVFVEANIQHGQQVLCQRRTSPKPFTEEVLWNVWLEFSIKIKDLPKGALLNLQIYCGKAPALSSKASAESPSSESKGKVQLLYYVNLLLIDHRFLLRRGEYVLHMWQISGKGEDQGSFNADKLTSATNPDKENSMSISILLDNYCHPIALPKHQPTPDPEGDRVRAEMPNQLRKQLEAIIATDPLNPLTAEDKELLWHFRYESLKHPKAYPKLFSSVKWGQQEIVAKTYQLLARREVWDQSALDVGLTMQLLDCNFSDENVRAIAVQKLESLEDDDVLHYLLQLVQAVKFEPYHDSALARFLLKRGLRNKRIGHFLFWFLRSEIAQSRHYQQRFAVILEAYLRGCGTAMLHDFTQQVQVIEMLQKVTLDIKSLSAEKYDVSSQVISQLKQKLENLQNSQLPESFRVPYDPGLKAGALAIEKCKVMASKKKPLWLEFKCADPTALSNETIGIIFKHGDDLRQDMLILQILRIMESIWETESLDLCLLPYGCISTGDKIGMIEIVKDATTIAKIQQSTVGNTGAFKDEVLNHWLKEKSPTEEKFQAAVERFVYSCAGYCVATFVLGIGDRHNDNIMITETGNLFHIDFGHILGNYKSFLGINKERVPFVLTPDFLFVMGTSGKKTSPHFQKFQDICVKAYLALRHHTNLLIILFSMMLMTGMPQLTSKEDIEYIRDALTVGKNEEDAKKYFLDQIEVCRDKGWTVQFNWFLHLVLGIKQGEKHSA

Chain of PI3K-α (P42336 whole entry, species assumed): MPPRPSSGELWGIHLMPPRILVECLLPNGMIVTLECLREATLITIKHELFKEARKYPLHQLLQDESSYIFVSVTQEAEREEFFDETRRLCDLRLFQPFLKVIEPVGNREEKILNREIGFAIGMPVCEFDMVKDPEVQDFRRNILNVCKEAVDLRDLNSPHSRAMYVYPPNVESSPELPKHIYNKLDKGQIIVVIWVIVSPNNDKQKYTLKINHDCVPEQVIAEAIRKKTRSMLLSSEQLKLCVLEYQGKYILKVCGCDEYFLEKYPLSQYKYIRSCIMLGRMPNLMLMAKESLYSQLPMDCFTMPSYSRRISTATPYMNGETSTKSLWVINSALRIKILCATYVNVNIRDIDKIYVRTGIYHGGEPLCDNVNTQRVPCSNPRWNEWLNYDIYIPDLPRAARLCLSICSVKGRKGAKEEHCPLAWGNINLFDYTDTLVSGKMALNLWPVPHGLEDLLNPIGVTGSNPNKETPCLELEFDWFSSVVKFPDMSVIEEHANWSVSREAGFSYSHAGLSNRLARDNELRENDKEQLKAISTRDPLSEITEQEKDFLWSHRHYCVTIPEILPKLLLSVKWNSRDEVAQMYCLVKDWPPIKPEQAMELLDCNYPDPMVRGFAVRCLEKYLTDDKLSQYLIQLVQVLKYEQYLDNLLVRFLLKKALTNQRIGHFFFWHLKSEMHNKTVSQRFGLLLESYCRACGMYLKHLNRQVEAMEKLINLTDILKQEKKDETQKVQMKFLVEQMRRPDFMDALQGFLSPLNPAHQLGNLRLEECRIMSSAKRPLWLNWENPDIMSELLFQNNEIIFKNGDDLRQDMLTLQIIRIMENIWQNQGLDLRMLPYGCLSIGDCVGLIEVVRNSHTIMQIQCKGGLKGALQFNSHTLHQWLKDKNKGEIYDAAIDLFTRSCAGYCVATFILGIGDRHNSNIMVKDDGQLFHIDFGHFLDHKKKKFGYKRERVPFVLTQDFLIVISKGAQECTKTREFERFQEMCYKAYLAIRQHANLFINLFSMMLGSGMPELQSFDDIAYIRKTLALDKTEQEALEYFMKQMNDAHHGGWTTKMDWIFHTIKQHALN
Chain of PI3K-α (P27986 whole entry partner, species assumed): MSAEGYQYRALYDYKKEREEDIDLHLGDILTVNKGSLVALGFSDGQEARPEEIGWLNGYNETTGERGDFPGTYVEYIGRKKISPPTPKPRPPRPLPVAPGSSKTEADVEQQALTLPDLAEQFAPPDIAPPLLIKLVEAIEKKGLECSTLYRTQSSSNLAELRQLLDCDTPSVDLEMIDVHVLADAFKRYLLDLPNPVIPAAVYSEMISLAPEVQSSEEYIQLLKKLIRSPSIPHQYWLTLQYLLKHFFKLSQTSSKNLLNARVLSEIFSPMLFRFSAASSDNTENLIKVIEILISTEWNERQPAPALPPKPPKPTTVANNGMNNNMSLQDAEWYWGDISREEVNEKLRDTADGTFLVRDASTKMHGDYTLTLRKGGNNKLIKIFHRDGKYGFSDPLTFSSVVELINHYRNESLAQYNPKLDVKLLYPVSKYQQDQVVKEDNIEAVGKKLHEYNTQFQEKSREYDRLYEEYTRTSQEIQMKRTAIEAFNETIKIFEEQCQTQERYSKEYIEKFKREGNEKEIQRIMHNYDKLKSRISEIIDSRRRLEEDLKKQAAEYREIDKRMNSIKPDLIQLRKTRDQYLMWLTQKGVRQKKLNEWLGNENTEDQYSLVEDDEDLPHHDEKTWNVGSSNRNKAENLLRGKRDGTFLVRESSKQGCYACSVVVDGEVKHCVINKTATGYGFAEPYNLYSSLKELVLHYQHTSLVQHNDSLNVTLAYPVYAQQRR
Chain of Human mTOR (FLAG-TOR) (P42345 1360-2549 limits assumed): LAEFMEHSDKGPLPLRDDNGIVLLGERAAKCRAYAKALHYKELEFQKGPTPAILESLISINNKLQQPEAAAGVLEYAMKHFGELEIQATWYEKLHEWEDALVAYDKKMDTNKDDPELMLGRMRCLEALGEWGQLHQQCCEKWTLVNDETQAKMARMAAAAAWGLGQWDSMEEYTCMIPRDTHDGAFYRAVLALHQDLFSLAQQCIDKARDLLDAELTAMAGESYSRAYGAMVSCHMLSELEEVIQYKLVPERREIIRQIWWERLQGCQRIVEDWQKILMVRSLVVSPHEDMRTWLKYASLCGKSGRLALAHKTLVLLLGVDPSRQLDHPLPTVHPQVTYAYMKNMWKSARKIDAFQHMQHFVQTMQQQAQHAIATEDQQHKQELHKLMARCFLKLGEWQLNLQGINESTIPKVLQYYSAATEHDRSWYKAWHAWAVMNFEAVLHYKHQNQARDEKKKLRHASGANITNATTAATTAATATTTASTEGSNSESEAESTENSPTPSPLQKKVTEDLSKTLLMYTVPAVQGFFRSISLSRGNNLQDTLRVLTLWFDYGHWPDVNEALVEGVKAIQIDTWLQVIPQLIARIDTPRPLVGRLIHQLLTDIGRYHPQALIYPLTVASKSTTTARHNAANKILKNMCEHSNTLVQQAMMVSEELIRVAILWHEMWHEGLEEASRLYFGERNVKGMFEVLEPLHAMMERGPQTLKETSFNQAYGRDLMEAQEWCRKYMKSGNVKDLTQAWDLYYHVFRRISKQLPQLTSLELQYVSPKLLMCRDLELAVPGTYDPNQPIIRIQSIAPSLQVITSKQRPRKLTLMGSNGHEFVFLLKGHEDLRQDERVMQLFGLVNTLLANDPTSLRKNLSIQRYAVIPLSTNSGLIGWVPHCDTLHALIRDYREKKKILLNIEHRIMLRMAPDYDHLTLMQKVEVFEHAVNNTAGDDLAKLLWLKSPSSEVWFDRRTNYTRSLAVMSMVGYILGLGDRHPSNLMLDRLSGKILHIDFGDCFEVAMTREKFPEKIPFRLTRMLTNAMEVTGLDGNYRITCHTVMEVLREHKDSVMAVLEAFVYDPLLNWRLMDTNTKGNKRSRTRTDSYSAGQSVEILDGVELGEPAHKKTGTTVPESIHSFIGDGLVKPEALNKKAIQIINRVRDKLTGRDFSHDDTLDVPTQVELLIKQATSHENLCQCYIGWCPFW

Compound | pIC50 (Human mTOR (FLAG-TOR)) | pIC50 ([1]; MDA-MB-361, 72 h) | pIC50 [2] | pIC50 (PI3K-α; read-out: IC50 PI3Kα) | pIC50 (PI3K-γ; read-out: IC50 PI3Kγ) | pIC50 ([1]; 72 h) | pIC50 (PI3K-α) | pIC50 (PI3K-γ)
CN(C)C1CCN(C(=O)c2ccc(NC(=O)Nc3ccc(-c4nc(N5CCCC5)nc(N5CCOCC5)n4)cc3)cc2)CC1 [Example 602, 1-(4-{[4-(dimethylamino)piperidin-1-yl]carbonyl}phenyl)-3-[4-(4-morpholin-4-yl-6-pyrrolidin-1-yl-1,3,5-triazin-2-yl)phenyl]urea] | 7.96 | 7.77 | 6.91 | 8.15 | 7.33 |  |  | 
CC(C)N1CCN(C(=O)c2ccc(NC(=O)Nc3ccc(-c4nc(N5CCCC5)nc(N5CCOCC5)n4)cc3)cc2)CC1 [Example 603, 1-(4-{[4-(1-methylethyl)piperazin-1-yl]carbonyl}phenyl)-3-[4-(4-morpholin-4-yl-6-pyrrolidin-1-yl-1,3,5-triazin-2-yl)phenyl]urea] | 7.77 | 7.77 | 6.86 | 8.07 | 7.30 |  |  | 
CN(C)CCN(C)C(=O)c1ccc(NC(=O)Nc2ccc(-c3nc(N4CCCC4)nc(N4CCOCC4)n3)cc2)cc1 [Example 604, N-[2-(dimethylamino)ethyl]-N-methyl-4-({[4-(4-morpholin-4-yl-6-pyrrolidin-1-yl-1,3,5-triazin-2-yl)phenyl]carbamoyl}amino)benzamide] | 8.00 |  | 7.14 | 8.46 | 7.26 | 8.40 |  | 
CN(C)CCN(C)C(=O)c1ccc(NC(=O)Nc2ccc(-c3nc(N4CCCCC4)nc(N4CCOCC4)n3)cc2)cc1 [Example 605, N-[2-(dimethylamino)ethyl]-N-methyl-4-({[4-(4-morpholin-4-yl-6-piperidin-1-yl-1,3,5-triazin-2-yl)phenyl]carbamoyl}amino)benzamide] | 8.52 |  | 7.04 | 8.66 | 7.34 | 8.15 |  | 
CCN1CCN(C(=O)c2ccc(NC(=O)Nc3ccc(-c4nc(N5CCCC5)nc(N5CCOCC5)n4)cc3)cc2)CC1 [Example 606, 1-{4-[(4-ethylpiperazin-1-yl)carbonyl]phenyl}-3-[4-(4-morpholin-4-yl-6-pyrrolidin-1-yl-1,3,5-triazin-2-yl)phenyl]urea] | 7.59 | 7.55 | 6.76 | 7.92 | 7.06 |  |  | 
CN1CCN(C(=O)c2ccc(NC(=O)Nc3ccc(-c4nc(N5CCCC5)nc(N5CCOCC5)n4)cc3)cc2)CC1 [Example 607, 1-{4-[(4-methylpiperazin-1-yl)carbonyl]phenyl}-3-[4-(4-morpholin-4-yl-6-pyrrolidin-1-yl-1,3,5-triazin-2-yl)phenyl]urea] | 7.72 | 7.62 | 6.67 | 7.92 | 7.03 |  |  | 
CN(C)CCNC(=O)c1ccc(NC(=O)Nc2ccc(-c3nc(N4CCCC4)nc(N4CCOCC4)n3)cc2)cc1 [Example 608, N-[2-(dimethylamino)ethyl]-4-({[4-(4-morpholin-4-yl-6-pyrrolidin-1-yl-1,3,5-triazin-2-yl)phenyl]carbamoyl}amino)benzamide] | 8.30 |  | 6.53 | 8.05 | 6.97 | 7.28 |  | 
C[C@H]1COCCN1c1nc(-c2ccc(NC(=O)Nc3ccncc3)cc2)nc(N2CCOC[C@@H]2C)n1 [Example 609, 1-(4-{4,6-bis[(3S)-3-methylmorpholin-4-yl]-1,3,5-triazin-2-yl}phenyl)-3-pyridin-4-ylurea] | 8.52 | 7.62 | 7.59 |  |  |  | 7.94 | 7.03
CN(C)CCCNC(=O)c1ccc(NC(=O)Nc2ccc(-c3nc(N4CCCCC4)nc(N4CCOCC4)n3)cc2)cc1 [Example 610, N-[3-(dimethylamino)propyl]-4-({[4-(4-morpholin-4-yl-6-piperidin-1-yl-1,3,5-triazin-2-yl)phenyl]carbamoyl}amino)benzamide] | 8.30 |  | 6.53 | 8.46 | 7.30 | 7.55 |  | 
COCCNC(=O)c1ccc(NC(=O)Nc2ccc(-c3nc(N4CCCCC4)nc(N4CCOCC4)n3)cc2)cc1 [Example 611, N-(2-methoxyethyl)-4-({[4-(4-morpholin-4-yl-6-piperidin-1-yl-1,3,5-triazin-2-yl)phenyl]carbamoyl}amino)benzamide] | 7.89 |  | 6.24 | 7.73 | 6.82 | 6.71 |  | 
